For one experiment, the target named is T1, TRPC3 (Homo sapiens, UniProt Q13507).
T1 construct: expressed in transfected cells
T1 sequence (Q13507 74-921): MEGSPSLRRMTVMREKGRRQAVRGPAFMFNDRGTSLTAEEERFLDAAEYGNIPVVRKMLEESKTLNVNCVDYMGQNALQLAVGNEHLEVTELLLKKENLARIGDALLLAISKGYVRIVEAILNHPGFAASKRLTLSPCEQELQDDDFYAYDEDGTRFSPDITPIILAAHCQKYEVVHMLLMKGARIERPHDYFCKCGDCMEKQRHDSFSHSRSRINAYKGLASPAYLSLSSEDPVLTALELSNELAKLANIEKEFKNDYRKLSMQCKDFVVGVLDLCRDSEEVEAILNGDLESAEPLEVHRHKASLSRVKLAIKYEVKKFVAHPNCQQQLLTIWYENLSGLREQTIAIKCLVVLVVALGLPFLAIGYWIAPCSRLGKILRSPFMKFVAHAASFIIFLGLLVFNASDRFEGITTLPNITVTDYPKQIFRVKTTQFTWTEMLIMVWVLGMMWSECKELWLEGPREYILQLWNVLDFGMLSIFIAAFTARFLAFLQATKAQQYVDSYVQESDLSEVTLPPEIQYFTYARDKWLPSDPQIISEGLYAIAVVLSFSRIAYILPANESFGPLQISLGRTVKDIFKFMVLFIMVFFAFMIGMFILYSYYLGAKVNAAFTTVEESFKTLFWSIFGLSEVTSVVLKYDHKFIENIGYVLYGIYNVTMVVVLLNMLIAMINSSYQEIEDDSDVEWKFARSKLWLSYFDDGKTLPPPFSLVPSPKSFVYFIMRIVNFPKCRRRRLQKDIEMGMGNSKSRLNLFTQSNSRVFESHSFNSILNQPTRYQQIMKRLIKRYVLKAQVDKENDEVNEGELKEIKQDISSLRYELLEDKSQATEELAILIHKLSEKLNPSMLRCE
Nature of the experiment: FLIPR Ca2+ fluorescence assay in inducible Flp-In T-REx-TRPC3 HEK 293 cells. The class given is cell-based. Conditions: mean±SEM; for Fluorescence changes (F/F0): 200 nM trypsin, t=60 sec, n=9. An excerpt:
(§1) To develop an assay for the identification of TRPC channel modulators, recombinant HEK 293 cell lines were produced using the Flp-In T-REx system (Invitrogen, Karsruhe, Germany) that express TRPC3 (accession # U47050) or TRPC6 (accession # AF080394) cDNAs under the control of an inducible promoter. Channel cDNAs were amplified by standard techniques and cloned into pcDNA5/FRT/TO (Invitrogen, Karlsruhe, Germany). After transfection of Flp-In T-Rex 293 cells with the channel constructs stable cell lines were selected with hygromycin. Cells were maintained according to the manufactures instructions and channel expression of was induced by addition of 1 μg/ml doxycycline for 20-30 h. Cells were plated into 96 well poly-d-lysine coated black walled clear bottom microtiter plates (BD Biosciences, Bedford, Mass.) at a density of 40000-50000 cells/well 20-30 h before experiments. […] Ca^2+ measurements were performed using a 96 well Fluorescence Imaging Plate Reader (FLIPR), (Molecular Devices Corporation, Sunnyvale, Calif.). […]
(§2) Fluorescence changes in fluo-4 loaded cells were measured using FLIPR II. […] Shown are mean fluorescence values±SEM from 9 wells each. Fluorescence values were normalized to the mean baseline fluorescence (F0).
(§3) To identify modulators of TRPC3 or TRPC6 with the assays described above induced cells were used and test compounds are added to the wells before or after application of OAG. The expected effect of inhibitors would be a reduction of the fluorescence increase. Channel activators would lead to a further increase of the OAG-evoked signal or induce an OAG-independent fluorescence increase. […]
(§4) Fluorescence changes induced by 30 μM OAG in TRPC3-and TRPC6 expressing cells were measured in the presence of the given concentrations of SKF 96365. […] Inhibition is expressed as % of control fluorescence in the absence of SKF 96365. […]

A further experiment has as its target T2, TRPC6 (Homo sapiens, UniProt Q9Y210).
T2 construct: expressed in transfected cells
T2 sequence (Q9Y210 1-931): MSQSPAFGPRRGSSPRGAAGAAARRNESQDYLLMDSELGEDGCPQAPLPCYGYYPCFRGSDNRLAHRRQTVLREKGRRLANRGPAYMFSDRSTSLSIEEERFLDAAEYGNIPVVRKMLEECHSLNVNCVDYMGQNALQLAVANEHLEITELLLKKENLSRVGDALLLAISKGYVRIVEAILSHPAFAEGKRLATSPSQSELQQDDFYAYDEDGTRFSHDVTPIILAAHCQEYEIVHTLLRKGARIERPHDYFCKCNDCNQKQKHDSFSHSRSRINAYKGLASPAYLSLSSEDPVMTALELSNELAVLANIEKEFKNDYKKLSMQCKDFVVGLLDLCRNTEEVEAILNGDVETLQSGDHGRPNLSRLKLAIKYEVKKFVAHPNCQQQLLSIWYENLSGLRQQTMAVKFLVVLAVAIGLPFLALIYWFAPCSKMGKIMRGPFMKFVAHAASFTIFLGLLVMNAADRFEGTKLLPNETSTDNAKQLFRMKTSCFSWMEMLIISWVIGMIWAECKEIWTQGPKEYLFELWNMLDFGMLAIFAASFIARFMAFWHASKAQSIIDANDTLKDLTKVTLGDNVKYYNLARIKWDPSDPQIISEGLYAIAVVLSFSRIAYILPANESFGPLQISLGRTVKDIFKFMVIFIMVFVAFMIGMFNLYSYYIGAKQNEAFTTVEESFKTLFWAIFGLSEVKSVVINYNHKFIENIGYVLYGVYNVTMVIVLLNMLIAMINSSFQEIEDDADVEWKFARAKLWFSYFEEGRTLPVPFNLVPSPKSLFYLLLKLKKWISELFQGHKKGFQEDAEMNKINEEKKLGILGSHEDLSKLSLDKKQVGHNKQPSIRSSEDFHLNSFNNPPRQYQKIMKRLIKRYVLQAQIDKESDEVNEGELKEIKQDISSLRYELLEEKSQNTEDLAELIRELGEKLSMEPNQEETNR
Put plainly: FLIPR Ca2+ fluorescence assay in inducible Flp-In T-REx-TRPC6 HEK 293 cells. Conditions: mean±SEM; for Fluorescence changes (F/F0): 200 nM trypsin, t=60 sec, n=12. The class given is cell-based.
Excerpt: as §1, §2, §3, §4

Two molecules from patent US8193150B2, “Improving vascular function with an inactivating mutant of a TRPC channel protein” (Sanofi, priority 2005, dated 2012) can be followed below.

Structures can show the parent of a compound that is named as a salt.

On to `COc1ccc(CCCOC(Cn2ccnc2)c2ccc(OC)cc2)cc1` (stereo not drawn) [SKF 96365, 1-(β-[3-(4-methoxyphenyl)propoxy]-4-methoxyphenethyl)-1H-imidazole-HCl], for which the IC50 at TRPC3 (doxycycline-induced cells, 30 μM OAG, n=8, read-out: IC50, inhibition of OAG-activated fluorescence responses in TRPC3 expressing cells) turned out to be 1.8 µM; at TRPC6 (doxycycline-induced cells, 30 μM OAG, n=8, read-out: IC50, inhibition of OAG-activated fluorescence responses in TRPC6 expressing cells), 5.04 ± 0.17 µM.
For trypsin, the “Fluorescence changes (F/F0)” value at TRPC3 (induced Flp-In T-REx-TRPC3 cells) is given as 2.71 ± 0.022 (n = 9); on TRPC3 (non-induced Flp-In T-REx-TRPC3 cells), 1.65 ± 0.034 (n = 9); at TRPC6 (induced Flp-In T-REx-TRPC6 cells) it was 2.26 ± 0.05 (n = 12); at TRPC6 (non-induced Flp-In T-REx-TRPC6 cells), 0.88 ± 0.009 (n = 12).

The term IC50 denotes the midpoint of a concentration-inhibition curve.
